# Experimental data from US10016515B2, “DMA, a bis-benzimidazole, confers radioprotection to the intestine via Akt/NFκB dual pathway activation” (Jawaharlal Nehru University, priority 2016, dated 2018).
# Assays:
# [1] = tested on: melanoma bearing Balb/c mice; assay: Melanoma tumor bearing mice, tumor volume and survival after TBI; assay type: in vivo, mouse
# Description: EAT and B16F10 melanoma cell line were harvested and 10×10^6 and 0.8×10^6 cells respectively were injected subcutaneously in the Balb/c mice (n=24) on the right thigh. When tumors reached 0.5 cm^3 in volume, animals were randomized and divided into 4 different groups. The first test group was treated with 50 mg/kg, i.v. DMA, second test group subjected to 8 Gy TBI. Third group received 50 mg/kg, i.v. DMA and 8 Gy TBI both. The control group was similarly administered normal saline (0.1 ml, i.v.). On every alternate days, tumor-bearing thigh of each animal was shaved, and the longest (1) and shortest diameter (b) of the tumors along with height (h) were measured with the help of a vernier calliper. Tumor weight of each animal was calculated using the formula l*b*h/2.
# [2] = tested on: nude mice; assay: Nude mice survival after 7Gy TBI; assay type: in vivo, mouse; conditions: 50 mg/kg i.p. 2 h prior to 7Gy TBI
# Description: Mice were divided into 4 groups containing 5 animals each. Group 1, sham control; Group 2, DMA treated (50 mg/kg, i.p.); Group 3, TBI 7Gy; Group 4, treated with DMA (50 mg/kg i.p.) prior to TBI 7Gy.
# [3] = tested on: melanoma bearing Balb/c mice; conditions: 300 mg/kg oral (Nimesh et al. 2015); cited from earlier work
# [4] = in vivo (earlier work, Nimesh et al., 2015); cited from earlier work
compound,measurement,setting,value
"COc1ccc(-c2nc3cc(-c4nc5cc(N6CCN(C)CC6)ccc5[nH]4)ccc3[nH]2)cc1OC [DMA, 5-(4-methylpiperazin-1-yl)-2-[2′-(3,4-dimethoxyphenyl)-5′-benzimidazolyl]benzimidazole]",Survival of melanoma bearing Balb/c mice,[1]; 50 mg/kg i.v. 2 h before 8Gy TBI,50%
same,Radioprotection of tumor tissues,"[1]; 50 mg/kg, 2 h before irradiation, melanoma model",less radioprotection
same,30-days survival of nude mice,[2],40%
same,Protection of tumor tissues,[3],no protection to tumor tissues
same,"Maximum tolerated dose (MTD), no toxicity in vivo",[4],2000 mg/kg
